Data: patent EP2949324A1, “Prevention and/or treatment of ischemia/reperfusion injury” (Consorci Institut Catala de Ciencies Cardiovasculars, priority 2014, dated 2015)

Columns and labels:
[1] = tested on: canine cardiac ischemia model; conditions: infused during reperfusion; cited from earlier work
Na^+/H^+ exchange system = Na^+/H^+ exchange system (Homo sapiens, UniProt P19634); conditions: recent clinical trial; cited from earlier work
[2] = cited from earlier work; for infarct size: given pre-ischemia
[3] = tested on: pig model of closed-chest coronary balloon occlusion/reperfusion; assay: Transthoracic echocardiography (LVEF, SF); type: in vivo, swine
Procedure: Transthoracic echocardiography assessment was performed in all animals before inducing ischemia (baseline), after 75 min of ischemia (prior β-OH-S infusion), 2.5 h post-reperfusion and 3 weeks post-MI using an echocardiographyc system Phillips iE33 equipped with a S5-1 Sector Array transducer. Left ventricle ejection fraction (LVEF) and shortening fraction (SF) were measured in the short-axis M-mode right parasternal projection in a plane below the mitral valves and perpendicular to the LV (left ventricle).

[4] = tested on: pig model of closed-chest coronary balloon occlusion/reperfusion; assay: Myocardial lipotoxicity: oil red-O staining and lipid characterization (TLC) of scar and NIM; type: in vivo, swine; conditions: 3 weeks post-MI
Procedure: (§1) To that end, serially cut 5 µm sections from OCT-embedded samples were stained for lipids (oil red-O, ORO) and interstitial collagen (Sirius Red). Images were captured with a Nikon eclipse 80i microscope and digitalized by a Retiga-1300i. Staining was calculated by a single blinded observer from an average of 5-fields/sample as content (%)=[positive stained area/(total tissue area- vascular luminal areas)]x100 using ImageJ®.

RhoA = RhoA in total and cytosolic-membrane fractions of cardiac tissue (immunoblotting); type: in vivo, swine; conditions: for total amount of RhoA: myocardium, […] post-reperfusion and 3 weeks post-MI
Procedure: RhoA (Santa Cruz) was determined in total and cytosolic-membrane fractions of jeopardized cardiac tissue of all animals as previously described by Vilahur G 2009 (ad supra).

[5] = tested on: TβRII/Smad2/3 signaling pathway; assay: Reparative fibrosis of the forming scar (TβRII/Smad2/3, myofibroblasts, collagen); type: in vivo, swine
Procedure: (§2) Transcriptomic analysis: It was analyzed by real-time PCR (Applied Biosystems) mRNA levels for: 1) apoptosis-related markers [extrinsic-(Fas Receptor/CD95 and caspase-8), intrinsic-(Bax, Bcl2, and P53) pathways and caspase-3]; 2) intracellular calcium handling receptors [sarcoendoplasmic reticulum Ca^2+ATPase 2 (SERCA2) and the ryanodine receptor (RyR2)]; and 3) fibrous tissue formation (collagen, Smad2 and Smad3). The threshold cycle values were determined and normalized to the housekeeping gene 18S rRNA.
(§3) Western Blot analysis: Protein levels of: 1) apoptosis markers (truncated-caspase-3); 2) cardioprotective kinases [PKC-ε and PKC-ε phosphorylated at Ser^729 (Santa Cruz) and Akt/PKB (Santa Cruz) and Akt phosphorylated at Ser^473 (Cell signaling)]; 3) total eNOS and eNOS phosphorilated at Ser^1177 (Cell Signaling); and 4) fibrosis [TGFP type II receptor (TPRII; Abcam) and phosphorylated-Smad2/3 (Ser^423/425; Santa Cruz)] were assessed.
as §1
In addition, myofibroblasts detection in the scar tissue was performed by double staining with mouse monoclonal vimentin (Dako) and rabbit polyclonal alpha-SMA 1:50 (Abeam). Alexa fluor 488 donkey anti-mouse and alexa fluor 546 goat anti-rabbit were used as secondary antibodies, respectively and Hoechst for nuclear staining. Images were captured by confocal microscopy (20x).

PKCε = PKCε expression/activation in the forming scar (Western blot); type: in vivo, swine; conditions: scar tissue, compared to placebo-control animals
Procedure: as §3

LDL = assay: Resistance of LDL against copper induced in vitro oxidation and TBARS; type: in vivo, swine; conditions: 3 week oral treatment; p<0.05
Procedure: (§4) Blood samples were collected at 2.5 h post-reperfusion and 3 weeks post-MI to evaluate lipoprotein resistance to oxidation. The inventors firstly assessed HDL-antioxidant activity by a method based on the ability of HDL to reverse oxidation of LDL. Results were expressed as the percentage of total oxidized LDL considering that control oxLDL is 100%. In addition, resistance of LDL against copper induced in vitro oxidation was also determined in EDTA-blood samples as previously described. The inventors also determined the lipid peroxide content of oxidized-LDL by assessing thiobarbituric-acid-reactive substances (TBARS).

[6] = tested on: Akt/eNOS signaling pathway; assay: Akt/eNOS signaling (Western blot) in myocardium and coronary arteries; type: in vivo, swine
Procedure: as §3
In addition, 3 weeks post-MI, the coronary arteries of all animals were isolated, cleaned of surrounding tissue and snap frozen for further analysis of coronary phosphorylated-eNOS protein expression.

[7] = tested on: canine hepatic ischemia/reperfusion model; conditions: given prior to reperfusion; cited from earlier work
[8] = tested on: apoptosis-related markers; assay: Apoptosis-related markers in ischemic myocardium (real-time PCR, Western blot, TUNEL); type: in vivo, swine
Procedure: (§5) Tissue samples obtained from the IM (2.5 h post-reperfusion)/scar (3 weeks post-MI) and NIM of all animals were pulverized and homogenized in Tripure® or lysis buffer for RNA and protein isolation, respectively.
as §2, §3
Isolated mitochondrial extracts were incubated against Bcl-2 phosphorylated at Ser^87.

[9] = tested on: pig model of closed-chest coronary balloon occlusion/reperfusion; assay: Vascular/cardiac DNA-oxidative damage (8-hydroxyguanosine staining); type: in vivo, swine; conditions: […] post-reperfusion
Procedure: (§6) Paraffin-embedded LAD and ischemic myocardial tissue of animals sacrificed 2.5 h post-reperfusion were cut into 5-µm-thick for 8-hydroxyguanosine staining (Abcam ab48508), a measurement indicative of oxidative stress-induced DNA-damage. In addition, optimal cutting temperature (OCT)-embedded ischemic myocardial tissue of animals sacrificed 2.5 h post-reperfusion was stained for neutrophils detection (anti-neutrophil elastase; Abcam). Staining was calculated by a single blinded observer from an average of 5-fields/animal as % of stained area. Images were captured by Nikon Eclipse 80i microscope and digitized by Retiga 1300i Fast camera.

[10] = tested on: mitochondria isolated from the ischemic myocardium; assay: Mitochondrial membrane potential by flow cytometry (JC-1); type: in vivo, swine; conditions: […] of reperfusion, p<0.05
Procedure: Mitochondria were isolated from the ischemic myocardium of pigs subjected to 2.5 h of reperfusion as previously reported (Boehm et al. 2001 Am J Physiol Heart Circ Physiol 280: H977-983). Mitochondrial membrane potential (Δψm) was measured by flow cytometry using the ratiometric dye 5,5',6,6'-tetrachloro-1,1',3,3'-tetraethylbenzimidazol carbocyanine iodide (JC-1; Molecular Probes). Values were expressed as red fluorescence activity. Isolated mitochondria treated with valinomycin (Sigma), which decreases Δψm, were used as control.

RyR2 = assay: Real-time PCR of calcium handling receptor mRNA; type: in vivo, swine
Procedure: as §5, §2

SERCA2 = assay: Real-time PCR of calcium handling receptor mRNA; type: in vivo, swine
Procedure: as §5, §2

[11] = tested on: pig model of closed-chest coronary balloon occlusion/reperfusion; assay: Morphometric determination of infarct size (Evan's Blue / TTC); type: in vivo, swine; conditions: single loading dose 0.3 mg/kg i.v. prior reperfusion; p<0.05
Procedure: This hyperlipidemic diet contains 24.82% proteins, 64.20% carbohydrates, 10.98% fats and 16,834.7 kJ. […] After this 10 day diet period animals underwent a closed-chest 90 min mid-left anterior descending (LAD) coronary balloon occlusion. […] At minute 90, the balloon was deflated to achieve coronary artery reperfusion. […] The incidence of reperfusion-related arrhythmias during the first 2.5 h upon balloon deflation was documented in all animals. Animals had continuous ECG and hemodynamic monitoring throughout all procedures. 2.5 h post-reperfusion Evan's Blue dye was injected in anesthetized animals through the left atrium to outline the area at risk (AAR) after which the hearts of the animals were arrested with potassium chloride and rapidly excised. Hearts were sectioned into 6 transverse slices parallel to the atrioventricular ring. Consecutive slices were alternatively collected for infarct size analysis (TTC; triphenyltetrazolium chloride staining) and molecular studies of the ischemic myocardium (IM) and non-ischemic myocardium (NIM).

oxLDL = assay: HDL-antioxidant activity (ability of HDL to reverse oxidation of LDL); type: in vivo, swine; conditions: HDL isolated […] post-reperfusion; p<0.05
Procedure: as §4

[12] = tested on: pig model of closed-chest coronary balloon occlusion/reperfusion; assay: Neutrophil detection in ischemic myocardium (anti-neutrophil elastase staining); type: in vivo, swine; conditions: […] post-reperfusion, p<0.05
Procedure: as §6

[13] = tested on: pig model of closed-chest coronary balloon occlusion/reperfusion; assay: Reperfusion-related arrhythmias and hemodynamic monitoring; type: in vivo, swine
Procedure: This hyperlipidemic diet contains 24.82% proteins, 64.20% carbohydrates, 10.98% fats and 16,834.7 kJ. […] After this 10 day diet period animals underwent a closed-chest 90 min mid-left anterior descending (LAD) coronary balloon occlusion. […] At minute 90, the balloon was deflated to achieve coronary artery reperfusion. […] The incidence of reperfusion-related arrhythmias during the first 2.5 h upon balloon deflation was documented in all animals. Animals had continuous ECG and hemodynamic monitoring throughout all procedures.

endothelin receptors = conditions: cited from earlier work; for cardiac function and myocardial relaxation: at 1 h; for difference compared to placebo-treated animals: at 24 h
[14] = ischemic myocardium, […] post-reperfusion

Chain of Na^+/H^+ exchange system (P19634 whole entry): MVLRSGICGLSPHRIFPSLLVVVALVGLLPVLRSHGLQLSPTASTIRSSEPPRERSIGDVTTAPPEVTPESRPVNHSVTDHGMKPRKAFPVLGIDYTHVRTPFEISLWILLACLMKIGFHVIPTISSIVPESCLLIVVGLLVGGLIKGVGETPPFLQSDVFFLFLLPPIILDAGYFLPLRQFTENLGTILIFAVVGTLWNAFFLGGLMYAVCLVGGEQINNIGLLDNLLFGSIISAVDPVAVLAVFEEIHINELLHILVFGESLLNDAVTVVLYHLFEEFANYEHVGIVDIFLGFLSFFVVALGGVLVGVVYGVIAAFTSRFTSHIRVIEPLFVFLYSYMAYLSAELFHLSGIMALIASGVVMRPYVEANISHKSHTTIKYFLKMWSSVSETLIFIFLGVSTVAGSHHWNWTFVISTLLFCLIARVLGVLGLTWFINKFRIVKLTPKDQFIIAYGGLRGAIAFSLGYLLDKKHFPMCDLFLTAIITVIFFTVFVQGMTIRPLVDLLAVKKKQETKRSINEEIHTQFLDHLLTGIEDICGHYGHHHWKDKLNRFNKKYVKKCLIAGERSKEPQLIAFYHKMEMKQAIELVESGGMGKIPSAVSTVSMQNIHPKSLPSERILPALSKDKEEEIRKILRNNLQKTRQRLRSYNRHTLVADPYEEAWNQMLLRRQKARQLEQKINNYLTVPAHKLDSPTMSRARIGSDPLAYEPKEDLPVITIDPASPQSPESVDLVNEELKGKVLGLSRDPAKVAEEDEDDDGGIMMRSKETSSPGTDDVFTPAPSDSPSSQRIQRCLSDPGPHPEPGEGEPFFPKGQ

## CCNC(=O)[C@H]1O[C@@H](n2cnc3c(N)nc(NCCc4ccc(CCC(=O)O)cc4)nc32)[C@H](O)[C@@H]1O [CGS-21680]
[1]
  Bax: downregulated
  Bcl-2 levels: upregulated
  neutrophil accumulation in the perinecrotic myocardium: reduced

## CC(C)c1ccc(C(=O)NC(=N)N)cc1S(C)(=O)=O [Cariporide]
Na^+/H^+ exchange system
  reperfusion injury (improved left ventricular (LV) dysfunction): attenuation of reperfusion injury

## CS(=O)(=O)O.Cc1cccc2c1cc(C(=O)N=C(N)N)n2C [SM-20550]
[2]; given post-ischemia
  effect on infarct size: beneficial
[2]
  infarct size: reduced infarct size in a dose-dependent manner

## CCC(C)(C)C(=O)O[C@H]1C[C@@H](C)C=C2C=C[C@H](C)[C@H](CC[C@@H]3C[C@@H](O)CC(=O)O3)[C@H]21 [Simvastatin, (1S,3R,7S,8S,8aR)-8-{2-[(2R,4R)-4-hydroxy-6-oxotetrahydro-2H-pyran-2-yl]ethyl}-3,7-dimethyl-1,2,3,7,8,8a hexahydronaphthalen-1-yl 2,2-dimethylbutanoate]
[3]; up to 3 weeks post-MI, oral simvastatin
  LVEF and SF improvement: persisted
[4]; different cardiac zones
  free-cholesterol content: No differences
[4]; forming scar
  less cholesteryl-ester accumulation as compared to placebo-controls: 50%
RhoA
  total amount of RhoA: unchanged
RhoA; scar, after the 3-week oral treatment, p<0.001 vs control
  decrease of RhoA membrane translocation: persisted
[5]; different cardiac regions, 3 weeks post-MI
  Smad3 mRNA levels: no changes
[5]; healing scar, compared to control animals and NIM
  collagen fibrils deposition: higher
[5]; healing scar, data not shown
  α-SMA/vimentin positive myofibroblasts: higher detection
[5]; scar area, 3 weeks post-MI
  Smad2/3 (downstream effector of TβRII): activation
  TβRII protein expression: marked and significant increase
[5]; scar tissue, 3 weeks post-MI
  Smad2 gene expression: significantly upregulated
PKCε
  PKCε expression and activation: enhanced both the expression and activation
LDL
  decrease in TBARS levels as compared to the experimental day: 32%
  prolongation of the lag time as compared to control/placebo animals: 4 times
[6]; coronary arteries at 3-weeks post-MI
  P-eNOS: enhanced
[6]; evolving scar up to 3 weeks post-AMI
  P-Akt/P-eNOS pathway activation: persisted

## Nc1ncnc2c1ncn2[C@@H]1O[C@H](CO)[C@@H](O)[C@H]1O [adenosine, Adenosine]
[7]
  aspartate aminotransferase (AST) and alanine transaminase (ALT): attenuated the rise
  hepatic glutathione stores: restored
  neutrophil accumulation and superoxide radical production: inhibition

## O=C(NCCO[N+](=O)[O-])c1cccnc1 [nicorandil]
[2]
  infarct size: reduced infarct size in a dose-dependent manner

## CCC(C)(C)C(=O)OC1CC(C)C=C2C=CC(C)C(CCC(O)CC(O)CC(=O)O)C21 (stereo not drawn) [β-OH-S, β-hydroxy acid derivative of simvastatin]
[3]; […] after reperfusion
  LVEF improvement: 9.4%
  SF improvement: 6.0%
[8]; [14]
  mitochondrial Bcl-2 activation: diminished
  truncated caspase-3 expression: reduced
[8]; ischemic myocardium, compared to vehicle/control, data not shown
  apoptotic cell counts (TUNEL staining): low apoptotic cell counts
[8]; jeopardized myocardium, […] post-reperfusion
  upregulation of genes of death receptor- and mitochondrial-related apoptotic pathways: prevented the upregulation
[9]; coronary artery
  reperfusion-related oxidative DNA damage: absence of DNA oxidative damage
[9]; ischemic myocardial tissue
  reperfusion-related oxidative DNA damage: absence of DNA oxidative damage
[10]
  Δψm relative to vehicle/control: 2 times
RhoA; intravenous infusion, ischemic myocardium, […] post-reperfusion, p<0.001 vs control
  RhoA membrane translocation (activation), membrane-to-cytosol ratio: markedly decreased
RhoA
  total amount of RhoA: unchanged
RyR2; NIM
  RyR2 mRNA: 0.2±0.07 RyR2/18S rRNA
RyR2; ischemic myocardium
  RyR2 mRNA: 0.14±0.03 RyR2/18S rRNA
SERCA2; NIM
  SERCA2 mRNA: 1.5±0.3 SERCA/18S rRNA
SERCA2; ischemic myocardium
  SERCA2 mRNA: 1.9±0.5 SERCA/18S rRNA
[11]
  salvage of the LV-at-risk as compared to reperfusion alone: 40%
oxLDL
  higher HDL antioxidant activity against LDL oxidation relative to controls: 25%
[12]
  attenuation of neutrophils infiltration as compared to vehicle/control: ~70%
[6]; ischemic myocardium, acute administration
  P-Akt/P-eNOS pathway: activating
[13]; first […] upon balloon deflation, 3 out of 12
  incidence of reperfusion-related ventricular arrhythmias: 25 % animals
[13]; throughout the study
  hemodynamic parameters (heart rate and mean blood pressure): not affected

## BQ-123
Endothelin receptors
  cardiac function and myocardial relaxation: significantly better
  difference compared to placebo-treated animals: no longer evident

## BQ-788
Endothelin receptors
  cardiac function and myocardial relaxation: significantly better
  difference compared to placebo-treated animals: no longer evident
